Results as given in patent US7320785B2, “Compositions and methods for modulation of DARPP-32 phosphorylation” (The Rockefeller University, priority 2001, dated 2008).
Like-named read-outs stand apart in the source and are kept apart here. Marks after values point to notes of the source that are not given here.

B1: PP2Cb: recombinant his-tagged beta isoform of protein phosphatase 2C cloned from rat striatum (protein, UniProt P35815 2-390, looked up)
Protein phosphatase 1B: GAFLDKPKTEKHNAHGAGNGLRYGLSSMQGWRVEMEDAHTAVVGIPHGLEDWSFFAVYDGHAGSRVANYCSTHLLEHITTNEDFRAADKSGFALEPSVENVKTGIRTGFLKIDEYMRNFSDLRNGMDRSGSTAVGVMISPTHIYFINCGDSRAVLCRNGQVCFSTQDHKPCNPMEKERIQNAGGSVMIQRVNGSLAVSRALGDYDYKCVDGKGPTEQLVSPEPEVYEILRAEEDEFVVLACDGIWDVMSNEELCEFVNSRLEVSDDLENVCNWVVDTCLHKGSRDNMSIVLVCFANAPKVSDEAVKRDLELDKHLESRVEEIMQKSGEEGMPDLAHVMRILSAENIPNLPPGGGLAGKRNVIEAVYSRLNPNKDNDGGAGDLEDSLVAL
modifications: His tag
notes: recombinant his-tagged beta isoform of protein phosphatase 2C cloned from rat striatum
B2: PP2Cg: recombinant his-tagged gamma isoform of protein phosphatase 2C cloned from rat striatum (protein)
chain: MGAYLSQPNTVKCSGDGVGAPRLPLPYGFSAMQGWRVSMEDAHNCIPELDNETAMFSVYDGHGGEEVALYCAKYLPDIIKDQKAYKEGKLQKALQDAFLAIDAKLTTDEVIKELAQIAGRPTEDEDDKEKVADEDDVDNEEAALLHEEATMTIEELLTRYGQNCQKGPPHTKSGTGIGDEPEPQGLNGEAGPEDPSRETPSQENGPTAKGHTGPSSNSDHGTEAGQIGEPGTATGEAGPSCSSASDKLPRVAKSKFFEDSEDESDEVEEEEDDSEECSEDEDGYSSEEAENEEDEDDTEEAEEDDDEEMMVPGMEGKEEPGSDSGTTAVVALIRGKQLIVANAGDSRCVVSEAGKALDMSYDHKPEDEVELARIKNAGGKVTMDGRVNGGLNLSRAIGDHFYKRNKNLPPQEQMISALPDIKVLTLTDDHEFMVIACDGIWNVMSSQEVVDFIQSKISQRDENGELRLLSSIVEELLDQCLAPDTSGDGTGCDNMTCIIICFKPRNTVELQPESGKRKLEEALSTEGAEENGNSDKKKAKRD
modifications: left off: small tags and cut ends
notes: recombinant his-tagged gamma isoform of protein phosphatase 2C cloned from rat striatum

Tests used:
[1] = test system: GluR1 subunit of the AMPA receptor; test: Phosphorylation of the GluR1 subunit of the AMPA receptor in slices from WT and DARPP-32 KO mice; format: cell-based, mouse
Protocol: In order to evaluate the involvement of DARPP-32 in the activity of serotonin, mice that lack DARPP-32 (DARPP-32 knockout (KO) mice) were used. In one set of experiments, striatal slices were prepared from normal mice (DARPP-32 wild-type) and DARPP-32 knockout mice and incubated with serotonin for 5 minutes. Experiments were then carried out to determine the levels of phospho-Ser845 of the GluR1 subunit of the AMPA (AMPA, α-amino-3-hydroxy-5-methyl-4-isoxazolepropionic acid) receptor.

[2] = test system: DARPP-32; test: DARPP-32 phosphorylation in mouse brain slices, immunoblotting with phosphorylation state-specific antibodies; details: for EC50 / activity at 100 µM: Mus musculus
[3] = test system: DARPP-32; test: Thr34-DARPP-32 phosphorylation in striatal slices from unilaterally 6-OHDA-lesioned rats; format: cell-based, rat
Protocol: Further experiments were conducted that provide evidence that activation of a serotonergic intracellular signaling pathway and of DARPP-32 has applicability in the treatment of Parkinson's disease. In these experiment, rats were unilaterally (i.e. in one hemisphere) injected with 6-OHDA (6-hydroxydopamine; a dopaminergic neurotoxin) according to standard methods. The 6-OHDA is selectively taken up by dopaminergic neurons and kills the neurons. Such 6-OHDA-lesioned animals are considered an animal model of Parkinson's disease. The 6-OHDA-lesioned animals were sacrificed, striatal slices were prepared, as described hereinabove, from the non-lesioned (i.e., “normal”) and the 6-OHDA-lesioned (i.e., “dopamine-depleted”) hemispheres, and used for striatal slice experiments according to the methods described hereinabove. 5-HT or saline (control) was administered according to the methods described hereinabove. […] The interpretation of these experiments is that 5-HT activates DARPP-32 phosphorylation via a mechanism that is largely independent of enhanced dopaminergic neurotransmission. Agents that enhance serotonergic neurotransmission, and that are stimulatory, can thus exert anti-Parkinsonian effects independent of dopamine, and can be used in the treatment of Parkinson's disease.

[4] = test system: DARPP-32; details: cited from earlier work
[5] = test system: phospho-Ser137-DARPP-32; test: Dephosphorylation of phospho-Ser137-DARPP-32 by recombinant PP2C isoforms; format: biochemical, rat; details: [^32P]phospho-Ser137 DARPP-32 as substrate; in the presence of 10 mM Mn^2+
Protocol: The activity of PP2C isoforms using ^32P-DARPP (phosphorylated at Ser137) was assayed at 37° C. in a reaction mixture containing 25 mM Tris-HCl, pH 7.5, 10 mM MnCl2, 1% BSA, and […] substrate, in a total volume of […]. Reactions were stopped by addition of […] of 50% trichloroacetic acid. Samples were then incubated on ice for 30 min and centrifuged at 10,000 g for 10 min at 4° C. Radioactivity recovered in the supernatant was measured by Cerenkov counting in a scintillation counter (Beckman).
(§1) Kinetic parameters (Km and Vmax) were determined from Lineweaver-Burk plots.
Legend Table 8. Enzymatic activities of PP2C isoforms assayed using [^32P]phospho-Ser137 DARPP-32 as substrate. Phosphatase activity was measured by the release of ^32P, and Km and Vmax values were calculated from Lineweaver-Burk plots of the data.

[6] = pNPP hydrolysis by recombinant PP2C isoforms (phosphatase assay); format: biochemical, rat; details: for Vmax of pNPP hydrolysis, Mn^2+ compared to Mg^2+ (higher): 20 mM Mn^2+ versus 20 mM Mg^2+; for Vmax / kcat / Km: pNPP as substrate; for Km: 37° C.
Protocol: The activity of PP2C isoforms using pNPP as substrate was assayed as previously described (Brumel et al., 1997). […] The reaction was stopped by addition of 1 ml of 0.1 M NaOH, and the initial rate of p-nitrophenol release was determined spectrophotometrically at 405 nm (using a molar extinction coefficient of 18 000 M−1 cm−1).
as §1
Legend Table 7. Enzymatic activities of PP2C isoforms assayed using pNPP as substrate. Phosphatase activity was measured using pNPP as substrate by the change in absorbance at 405 nm. Km and Vmax values were calculated from Lineweaver-Burk plots of the data.

[7] = slices from hippocampus, frontal cortex, striatum, WT mice, serotonin 100 μM, 10 min
[8] = striatal slices, serotonin for 5 minutes
[9] = nucleus accumbens slices, serotonin 100 μM, 2 min, n=12

| Molecule | frontal cortex levels of DARPP-32 immunoreactivity ([4]; chronic administration in rats) | Km [5] | Vmax [5] | kcat [5] | Vmax of pNPP hydrolysis, Mn^2+ compared to Mg^2+ (higher) [6] | Vmax ([6]; in the presence of 20 mM Mg^2+) | kcat ([6]; in the presence of 20 mM Mg^2+) | Km ([6]; in the presence of 20 mM Mg^2+) | Vmax ([6]; in the presence of 20 mM Mn^2+) | kcat ([6]; in the presence of 20 mM Mn^2+) | Km ([6]; in the presence of 20 mM Mn^2+) | other results |
| --- | --- | --- | --- | --- | --- | --- | --- | --- | --- | --- | --- | --- |
| NCCc1c[nH]c2ccc(O)cc12 [Serotonin] |  |  |  |  |  |  |  |  |  |  |  | increased phosphorylation at Ser-845 GluR1, DARPP-32 KO versus WT ([1]; slices from DARPP-32 KO mice, serotonin 100 μM): significantly reduced; phosphorylation at Ser-831 GluR1 [1, 7]: increased; phosphorylation at Ser-845 GluR1 [1, 7]: increased; Ser845-GluR1 Levels, DARPP-32 Knockout [1, 8]: 111(14.9)# percentage of control; Ser845-GluR1 Levels, DARPP-32 Wild-type [1, 8]: 199(22.7)* percentage of control; EC50 ([2]; 2 min, read-out: EC50 for effect on DARPP-32 phosphorylation at Ser137): 37.6 µM; EC50 ([2]; 2 min, read-out: EC50 for effect on DARPP-32 phosphorylation at Thr34): 13.5 µM; activity at 100 µM ([2]; 2 min, read-out: Percent Phospho-Ser137): 141%; activity at 100 µM ([2]; 2 min, read-out: Percent Phospho-Thr34): 342%; EC50 ([2]; 10 min, read-out: EC50 for effect on DARPP-32 phosphorylation at Thr75): 29.6 µM; activity at 100 µM ([2]; 10 min, read-out: Percent Phospho-Thr75): 76%; phosphorylation at Ser137 [2, 9]: 143±7%; phosphorylation at Thr34 [2, 9]: 307±25%; phosphorylation at Thr75 ([2]; nucleus accumbens slices, serotonin, 10 min, n=12): 75±6%; phospho-Thr34 DARPP-32 ([2]; prefrontal cortex slices, 2 min of incubation, n=6): 185±15%; phospho-Thr75 DARPP-32 ([2]; prefrontal cortex slices, 10 min of incubation, n=6): 85±3%; Percent Phospho-Thr34 ([3]; 6-OHDA lesioned hemisphere): 369(67.2)* Percent; Percent Phospho-Thr34 ([3]; Intact hemisphere): 306(50.7) Percent |
| O=C(CCCN1CCC(O)(c2ccc(Cl)cc2)CC1)c1ccc(F)cc1 [haloperidol] | without effects |  |  |  |  |  |  |  |  |  |  |  |
| CN(C)CCCN1c2ccccc2CCc2ccccc21 [imipramine] | significant increases |  |  |  |  |  |  |  |  |  |  |  |
| CN1CC[C@]23c4c5ccc(O)c4O[C@H]2[C@@H](O)C=C[C@H]3[C@H]1C5 [morphine] |  |  |  |  |  |  |  |  |  |  |  | frontal cortex levels of DARPP-32 immunoreactivity ([4]; rat, in vivo): without effects |
| B1 |  | 25.3 µM | 0.99 µmol/mg/min | 0.78 s⁻¹ | approximately 50 fold | 0.20 µmol/mg/min | 0.16 s⁻¹ | 3200 µM | 10.72 µmol/mg/min | 8.42 s⁻¹ | 2290 µM |  |
| B2 |  | 7 µM | 0.31 µmol/mg/min | 0.32 s⁻¹ | 15 fold | 0.09 µmol/mg/min | 0.094 s⁻¹ | 12800 µM | 1.29 µmol/mg/min | 1.35 s⁻¹ | 520 µM | Km of pNPP hydrolysis, Mn^2+ compared to Mg^2+ (lower) ([6]; Mn^2+ substitutes Mg^2+): 24 fold |
